According to PMC11679033, “Assessing the Potential Synergistic/Antagonistic Effects of Citrinin and Cannabidiol on SH-SY5Y, HepG2, HEK293 Cell Lines, and Human Lymphocytes” (Toxins, 2024):
Marks after values point to notes of the source that are not given here.

Columns and labels:
SH-SY5Y cells = experiment: Cell membrane integrity (LDH release), SH-SY5Y; type: cell-based, human; conditions: 24 h, CBD 1 μM, CIT 30 μM, alone or combined
Description: (§1) Cell membrane integrity was determined after exposure to compounds’ concentrations corresponding to LOAEL concentrations in 24 h by measuring the release of the intracellular lactate dehydrogenase (LDH) and the procedure followed a previously described protocol using The CytoTox-ONE™ Homogeneous Membrane Integrity Assay (Promega, Madison, WI, USA). In short, the cells were seeded in black 96-well plates at a density of 10,000 cells/well one day before the experiment and treated with selected LOAEL concentrations. Triton X-100 at a final concentration of 0.18% (v/v) (stock of 9% in water) was used as a positive control to determine the maximal LDH release. Data were taken from at least two independent experiments (each treatment performed in duplicate or triplicate) and plotted as a percentage of LDH release compared to the determined maximal LDH release, according to the manufacturer’s calculation protocol.

HepG2 cells = experiment: Cell membrane integrity (LDH release), HepG2; type: cell-based, human; conditions: HepG2, 24 h; CBD 1 μM, CIT 30 μM, alone or combined
Description: as §1

[1] = system: human peripheral blood lymphocytes; experiment: Cytokinesis-Block Micronucleus Cytome (CBMN Cyt) Assay; conditions: 24 h, citrinin 30 µM, CBD 1 µM, bleomycin 1.25 µg/mL; for Distribution of BNMN Cells with 1 MN / Distribution of BNMN Cells with 2 MNi / Distribution of BNMN Cells with 3 MNi / Distribution of BNNB Cells with 1 NB / Distribution of BNNB Cells with 2 NBs / Micronuclei (MNi) and BNMN Cells: Total (BNNB)6000 / Micronuclei (MNi) and BNMN Cells: Total (MNi)6000 / Nuclear Buds (NBs) and BNNB Cells: Total (BNNB)6000 / Nuclear Buds (NBs) and BNNB Cells: Total (NBs)6000 / Nucleoplasmic Bridges (NPBs) and BNNPB Cells: Total (BNNPB)6000 / Nucleoplasmic Bridges (NPBs) and BNNPB Cells: Total (NPBs)6000: in 6000 BN cells; for Cell Death: Total (Apoptosis)6000 / Cell Death: Total (Necrosis)6000: in 6000 cells; for Micronuclei (MNi) and BNMN Cells: Mean (BNMN)1000 ± SD / Micronuclei (MNi) and BNMN Cells: Mean (MNi)1000 ± SD / Nuclear Buds (NBs) and BNNB Cells: Mean (BNNB)1000 ± SD / Nuclear Buds (NBs) and BNNB Cells: Mean (NBs)1000 ± SD / Nucleoplasmic Bridges (NPBs) and BNNPB Cells: Mean (BNNPB)1000 ± SD / Nucleoplasmic Bridges (NPBs) and BNNPB Cells: Mean (NPBs)1000 ± SD: per 1000 BN cells; for Cell Death: Mean (Apoptosis)1000 ± SD / Cell Death: Mean (Necrosis)1000 ± SD: per 1000 cells
Description: The experimental design included the establishment of lymphocyte cultures, and the 24 h treatments with the test compounds, performed according to the last OECD recommendations, given in the Test Guideline No. 487—In Vitro Mammalian Cell Micronucleus Test.
The selection of specific concentrations of test compounds adhered to the guidelines for in vitro genotoxicity testing using comet assay. […] Solutions used in testing were prepared just prior to treatment by dissolving the test compounds in ethanol (Kemika, Zagreb, Croatia).
Two independent trials, with six experimental groups each, were conducted. A total of six replicate cultures for every single experimental group were established. This step was carried out as follows: aliquots of heparinized blood (V = 600 μL per culture) were pipetted into a growth medium RPMI-1640 (Gibco, Grand Island, NY, USA) supplemented with 10% fetal calf serum (Gibco, Grand Island, NY, USA) and antibiotics (penicillin and streptomycin; Sigma-Aldrich, Steinheim, Germany). Lymphocytes were stimulated with a mitogen phytohemagglutinin (Remel, Lenexa, KS, USA) in order to induce cell division prior to exposure to the test chemicals. Cultures were maintained in the humidified atmosphere of 5% CO2 at 37 °C (Heraeus Hera Cell 240 incubator; Langenselbold, Germany).
Negative controls (NCs) were non-treated lymphocytes. Solvent controls (SCs) were lymphocytes treated with ethanol (its final concentration in the culture corresponded to 0.03%). Positive controls (PCs) were lymphocytes treated for 24 h with bleomycin at 1.25 µg/mL (according to [69]). The other three groups were lymphocytes exposed to single CIT, single CBD, and their combination (CIT + CBD, at the same concentrations).
Treatments with test compounds started 20 h after the initial establishment of the cell cultures and lasted for 24 h. Upon completion of the exposure, aliquots of 100 µL of the treated cultures were pipetted in sterile conditions and used to prepare microgels for the alkaline comet assay. The remaining content of flasks was further processed using Cytokinesis-Block Micronucleus Cytome (CBMN Cyt) Assay.
CBMN Cyt Assay was performed according to standard protocols proposed for micronucleus assay. Upon completion of the exposure, lymphocyte cultures were subjected to centrifugation at 100× g using a benchtop centrifuge (ROTOFIX 32A, Hettich, Tuttlingen, Germany). During this process, cells settled to the bottom of the tube. The growth medium with tested compounds was removed by pipetting, discarded and replaced with a fresh amount of complete growth medium RPMI-1640 that contained Cytochalasin B (cytoB; Sigma-Aldrich, Steinheim, Germany) at a final concentration of 6 µg/mL. This procedure was timed to the 44th hour of lymphocyte cultivation, as that time is a critical point for the addition of cytoB to inhibit cytokinesis and obtain binucleated cells. All treated and control cultures were further maintained in the previously described conditions at 37 °C until the end of the 72nd hour of cultivation, as proposed by protocols. Then, the preparation of microscopic slides started, which included harvesting of cells by centrifugation (100× g, ROTOFIX 32A centrifuge, Hettich, Tuttlingen, Germany), followed by hypotonic treatment (0.075 mol/L KCl; Kemika, Zagreb, Croatia), and a new round of centrifugation. The resulting sediments of cells were fixed in several repeating stages with methanol–acetic acid (3:1 v/v; both obtained from Kemika, Zagreb, Croatia) followed by centrifugation. The final lymphocyte suspension was dropped onto clean microscope slides.

[2] = Lymphocyte proliferation / cytotoxicity (CBPI, RI); type: cell-based, human; conditions: human, citrinin 7.50 µg/mL, CBD 3.15 µg/mL, bleomycin 1.25 µg/mL, deduced from RI
From the text: (§2) On the same slides, parameters of cell proliferation, cytostasis and cytotoxicity were studied, according to recommendations by OECD 2023 [67]. For that purpose, the numbers of mono-, bi-, tri-, and quadrinuclear cells (i.e., M1, M2, M3, M4) were scored at 400× magnification using a light microscope (Leitz, Oberkochen, Germany). The total number of M1 to M4 cells counted per experimental group was 3000 (i.e., 6 × 500 cells).
(§3) Based on the scored ratios of M1 to M4 cells, the Cytokinesis-Block Proliferation Index (CBPI) was calculated, using the formula: CBPI = [(No. of mononucleated cells) + (2 × No. of binucleated cells) + (3 × No. of multinucleated cells)]/(Total number of cells).
(§4) To establish the relative number of cell cycles per cell during the period of exposure to cytoB in treated compared to control cultures, the Replication Index (RI) was also calculated according to the formula:RI = {[(<No. binucleated cells> + <2 × No. multinucleated cells>)/(Total number of cells in treated culture)]/[(<No. binucleated cells> + <2 × No. multinucleated cells>) […] (Total number of cells in control culture)]} × 100
(§5) Finally, from the obtained values of RI, the cytotoxicity estimate was deduced, as % Cytotoxicity = […].

[3] = system: human peripheral blood lymphocytes; experiment: Lymphocyte proliferation / cytotoxicity (CBPI, RI); type: cell-based; conditions: 24 h, citrinin 7.50 µg/mL, CBD 3.15 µg/mL, bleomycin 1.25 µg/mL; for Cytokinesis-Block Proliferation Index: 3000 cells scored; for Replication Index (%): relative to negative control
From the text: as §2, §3, §4, §5

Compound	cell membrane integrity (LDH release) (SH-SY5Y cells)	cell membrane integrity (LDH release) (HepG2 cells)	Distribution of BNMN Cells with 1 MN [1]	Distribution of BNMN Cells with 2 MNi [1]	Distribution of BNMN Cells with 3 MNi [1]	Distribution of BNNB Cells with 1 NB [1]	Distribution of BNNB Cells with 2 NBs [1]	Micronuclei (MNi) and BNMN Cells: Total (BNNB)6000 [1]	Micronuclei (MNi) and BNMN Cells: Total (MNi)6000 [1]	Nuclear Buds (NBs) and BNNB Cells: Total (BNNB)6000 [1]	Nuclear Buds (NBs) and BNNB Cells: Total (NBs)6000 [1]	Nucleoplasmic Bridges (NPBs) and BNNPB Cells: Total (BNNPB)6000 [1]	Nucleoplasmic Bridges (NPBs) and BNNPB Cells: Total (NPBs)6000 [1]	Cell Death: Total (Apoptosis)6000 [1]	Cell Death: Total (Necrosis)6000 [1]	Micronuclei (MNi) and BNMN Cells: Mean (BNMN)1000 ± SD [1]	Micronuclei (MNi) and BNMN Cells: Mean (MNi)1000 ± SD [1]	Nuclear Buds (NBs) and BNNB Cells: Mean (BNNB)1000 ± SD [1]	Nuclear Buds (NBs) and BNNB Cells: Mean (NBs)1000 ± SD [1]	Nucleoplasmic Bridges (NPBs) and BNNPB Cells: Mean (BNNPB)1000 ± SD [1]	other results
C=C(C)[C@@H]1CCC(C)=C[C@H]1c1c(O)cc(CCCCC)cc1O [CBD, cannabidiol]	not significantly compromised	not significantly compromised	17	0	0	25 ^a	0	17	17	25 ^a	25 ^a	0	0	19 ^a	9	2.8 ± 0.8	2.8 ± 0.8	4.2 ± 0.4 ^a	4.2 ± 0.4 ^a	0	Nucleoplasmic Bridges (NPBs) and BNNPB Cells: Mean (NPBs)1000 ± SD [1]: 0; Cell Death: Mean (Apoptosis)1000 ± SD [1]: 3.2 ± 0.8 ^a,b; Cell Death: Mean (Necrosis)1000 ± SD [1]: 1.5 ± 1.0; cytotoxicity at 24 h [2]: 2.86%; Cytokinesis-Block Proliferation Index [3]: 1.96^↓nc, sc; Replication Index (%) [3]: 97.14%
CC1=C2C(=CO[C@H](C)[C@H]2C)C(O)=C(C(=O)O)C1=O [CIT, citrinin]	not significantly compromised	not significantly compromised	66 ^a,b,d,e	5	0	69 ^a,b,d,e	5	71^a,b,d,e	74 ^a,b,d,e	74 ^a,b,d,e	79 ^a,b,d,e	4	4	50 ^a,b,d,e	45 ^a,b,d,e	11.7 ± 1.4 ^a,b,d,e	12.3 ± 1.6 ^a,b,d,e	12.3 ± 3.1 ^a,b,d,e	13.2 ± 3.7 ^a,b,d,e	0.7 ± 0.5	Nucleoplasmic Bridges (NPBs) and BNNPB Cells: Mean (NPBs)1000 ± SD [1]: 0.7 ± 0.5; Cell Death: Mean (Apoptosis)1000 ± SD [1]: 8.3 ± 1.6 ^a,b,d,e; Cell Death: Mean (Necrosis)1000 ± SD [1]: 7.5 ± 0.8 ^a,b,d,e; cytotoxicity at 24 h [2]: 16.5%; Cytokinesis-Block Proliferation Index [3]: 1.83^↓nc, sc, cbd, &; Replication Index (%) [3]: 83.46%
